Columns and labels:
barnyard grass [1] = experiment: Test Example 3: herbicidal effect by foliage application, Wagner pot (Table 18, symbol H); format: in vivo, barnyard grass (Echinochloa crus-galli)
Summary of the method: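 Plants were sown in alluvial soil held under 0.1–0.5 cm standing water and grown 14 days in a greenhouse at 25–30 °C. An emulsifiable formulation, water-diluted to the set dose, was then sprayed onto the foliage, and effects were scored three weeks later using previously defined criteria.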

lambsquarters = experiment: Test Example 5: herbicidal effect by foliage application, plastic box (Table 20, symbol O); format: in vivo, lambsquarters (Chenopodium album); settings: foliage application, 3 weeks after application
Summary of the method: (§1)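 Plants sown in sterilized diluvial soil and grown 14 days in a greenhouse at 25° C to 30° C, then sprayed on the foliage with the compound's emulsion diluted in water to a predetermined herbicide amount. Injury to weeds and crops scored three weeks after application on a visual rating scale.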

southern crabgrass = experiment: Test Example 5: herbicidal effect by foliage application, plastic box (Table 20, symbol F); format: in vivo, southern crabgrass (Digitaria ciliaris); settings: foliage application, 3 weeks after application
Summary of the method: as §1

persian speedwell [2] = experiment: Test Example 5: herbicidal effect by foliage application, plastic box (Table 20, symbol R); format: in vivo, Persian speedwell (Veronica persica); settings: foliage application, 3 weeks after application
Summary of the method: as §1

velvetleaf = experiment: Test Example 4: herbicidal effect by soil treatment (Table 19, symbol M); format: in vivo, velvetleaf (Abutilon theophrasti)
Summary of the method: (§2)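 Three weeks of greenhouse growth at 25° C. to 30° C. followed a uniform surface spray of water-diluted emulsion at a predetermined herbicide amount. Seeds had been sown beforehand under about 1.5 cm of sterilized diluvial soil. Grading followed criteria set out in an earlier test.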

persian speedwell [3] = experiment: Test Example 4: herbicidal effect by soil treatment (Table 19, symbol R); format: in vivo, Persian speedwell (Veronica persica)
Summary of the method: as §2

windgrass = experiment: Test Example 5: herbicidal effect by foliage application, plastic box (Table 20, symbol L); format: in vivo, windgrass (Apera spica-venti); settings: foliage application, 3 weeks after application
Summary of the method: as §1

redroot pigweed = experiment: Test Example 4: herbicidal effect by soil treatment (Table 19, symbol N); format: in vivo, redroot pigweed (Amaranthus retroflexus)
Summary of the method: as §2

green foxtail = experiment: Test Example 4: herbicidal effect by soil treatment (Table 19, symbol G); format: in vivo, green foxtail (Setaria viridis)
Summary of the method: as §2

oval-leafed pondweed [4] = experiment: Test Example 2: herbicidal activity, application during weed generation under submerged conditions (Table 17, symbol C); format: in vivo, oval-leafed pondweed (Monochoria vaginalis); settings: application during weed generation, submerged conditions
Summary of the method: (§3)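 Wagner pot, alluvial soil, 4 cm flood; mixed sowing of all species; greenhouse 25° C.–30° C. Emulsifiable formulation, water-diluted to predetermined dose, applied to paddy water at 1–2 leaf stage. Effect rated at 3 wk using the earlier test's scoring criteria.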

Japanese bulrush = experiment: Test Example 2: herbicidal activity, application during weed generation under submerged conditions (Table 17, symbol B); format: in vivo, Japanese bulrush (Schoenoplectus juncoides); settings: application during weed generation, submerged conditions
Summary of the method: as §3

oval-leafed pondweed [5] = experiment: Test Example 1: herbicidal activity, application before weed generation under submerged conditions (Table 16, symbol C); format: in vivo, oval-leafed pondweed (Monochoria vaginalis)
Summary of the method: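 Emulsion formulation, water-diluted to set dose, was put onto the flooded surface (4 cm depth, alluvial soil) the same day weeds were sown and 2.5-leaf rice transplanted. After 3 weeks at 25-30 °C under glass, each species was rated 0 (≤5% kill) to 5 (≥90% kill).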

blackgrass = experiment: Test Example 4: herbicidal effect by soil treatment (Table 19, symbol J); format: in vivo, blackgrass (Alopecurus myosuroides)
Summary of the method: as §2

barnyard grass [6] = experiment: Test Example 4: herbicidal effect by soil treatment (Table 19, symbol H); format: in vivo, barnyard grass (Echinochloa crus-galli)
Summary of the method: as §2

Row | SMILES | herbicidal effect on H (barnyard grass), rating 0-5 (barnyard grass [1]; 320 g/ha) | effect on lambsquarters (O) (lambsquarters; 320 g/ha) | effect on southern crabgrass (F) (southern crabgrass; 320 g/ha) | effect on persian speedwell (R) (persian speedwell [2]; 320 g/ha) | M: velvetleaf, herbicidal effect rating (velvetleaf; AAH 320 g/ha) | R: persian speedwell, herbicidal effect rating (persian speedwell [3]; AAH 320 g/ha) | effect on windgrass (L) (windgrass; 320 g/ha) | N: redroot pigweed, herbicidal effect rating (redroot pigweed; AAH 320 g/ha) | G: green foxtail, herbicidal effect rating (green foxtail; AAH 320 g/ha) | herbicidal effect rating, C: oval-leafed pondweed (oval-leafed pondweed [4]; AAH 320 g/ha) | herbicidal effect rating, B: Japanese bulrush (Japanese bulrush; AAH 320 g/ha) | Herbicidal effect on C: oval-leafed pondweed (grade 0-5) (oval-leafed pondweed [5]; 320 g/ha applied herbicide) | J: blackgrass, herbicidal effect rating (blackgrass; AAH 320 g/ha) | H: barnyard grass, herbicidal effect rating (barnyard grass [6]; AAH 320 g/ha) | further results
1 | C#CC(C)Oc1ccc(-c2sc3ccccc3c2-c2c(O)c(C)nn(C)c2=O)cc1 (racemic) [1-217] | 5 (Herbicidal rate of 90% or more (almost completely withered)) | 5 (Herbicidal rate of 90% or more (almost completely withered)) | 4 (Herbicidal rate of 70% or more and less than 90%) | 5 (Herbicidal rate of 90% or more (almost completely withered)) | 0 (Herbicidal rate of 5% or less (almost no effect)) | 5 (Herbicidal rate of 90% or more (almost completely withered)) | 5 (Herbicidal rate of 90% or more (almost completely withered)) | 4 (Herbicidal rate of 70% or more and less than 90%) | 3 (Herbicidal rate of 40% or more and less than 70%) | 3 (Herbicidal rate of 40% or more and less than 70%) | 3 (Herbicidal rate of 40% or more and less than 70%) | 3 (Herbicidal rate of 40% or more and less than 70%) | 0 (Herbicidal rate of 5% or less (almost no effect)) |  | 
2 | C#CC(C)Oc1ccc(-c2sc3ccccc3c2-c2c(OCOCCOC)c(C)nn(C)c2=O)cc1 (racemic) [1-218] |  |  |  |  |  |  |  |  |  |  |  |  |  |  | herbicidal effect on H (barnyard grass), rating 0-5 (barnyard grass [1]; 100 g/ha): 4 (Herbicidal rate of 70% or more and less than 90%); effect on lambsquarters (O) (lambsquarters; 187 g/ha): 4 (Herbicidal rate of 70% or more and less than 90%); H: barnyard grass, herbicidal effect rating (barnyard grass [6]; AAH 187 g/ha): 2 (Herbicidal rate of 20% or more and less than 40%); effect on southern crabgrass (F) (southern crabgrass; 187 g/ha): 0 (Herbicidal rate of 5% or less (almost no effect)); effect on persian speedwell (R) (persian speedwell [2]; 187 g/ha): 5 (Herbicidal rate of 90% or more (almost completely withered)); M: velvetleaf, herbicidal effect rating (velvetleaf; AAH 187 g/ha): 0 (Herbicidal rate of 5% or less (almost no effect)); R: persian speedwell, herbicidal effect rating (persian speedwell [3]; AAH 187 g/ha): 5 (Herbicidal rate of 90% or more (almost completely withered)); effect on windgrass (L) (windgrass; 187 g/ha): 0 (Herbicidal rate of 5% or less (almost no effect)); N: redroot pigweed, herbicidal effect rating (redroot pigweed; AAH 187 g/ha): 2 (Herbicidal rate of 20% or more and less than 40%); G: green foxtail, herbicidal effect rating (green foxtail; AAH 187 g/ha): 3 (Herbicidal rate of 40% or more and less than 70%); herbicidal effect rating, C: oval-leafed pondweed (oval-leafed pondweed [4]; AAH 100 g/ha): 4 (Herbicidal rate of 70% or more and less than 90%); herbicidal effect rating, B: Japanese bulrush (Japanese bulrush; AAH 100 g/ha): 3 (Herbicidal rate of 40% or more and less than 70%); Herbicidal effect on C: oval-leafed pondweed (grade 0-5) (oval-leafed pondweed [5]; 100 g/ha applied herbicide): 0 (Herbicidal rate of 5% or less (almost no effect)); J: blackgrass, herbicidal effect rating (blackgrass; AAH 187 g/ha): 0 (Herbicidal rate of 5% or less (almost no effect))
3 | COCC(C)Oc1ccc(-c2sc3ccccc3c2-c2c(O)c(C)nn(C)c2=O)cc1 (racemic) [1-228] | 5 (Herbicidal rate of 90% or more (almost completely withered)) | 5 (Herbicidal rate of 90% or more (almost completely withered)) | 5 (Herbicidal rate of 90% or more (almost completely withered)) | 5 (Herbicidal rate of 90% or more (almost completely withered)) | 4 (Herbicidal rate of 70% or more and less than 90%) | 5 (Herbicidal rate of 90% or more (almost completely withered)) | 5 (Herbicidal rate of 90% or more (almost completely withered)) | 5 (Herbicidal rate of 90% or more (almost completely withered)) | 5 (Herbicidal rate of 90% or more (almost completely withered)) | 3 (Herbicidal rate of 40% or more and less than 70%) | 3 (Herbicidal rate of 40% or more and less than 70%) | 4 (Herbicidal rate of 70% or more and less than 90%) | 4 (Herbicidal rate of 70% or more and less than 90%) | 4 (Herbicidal rate of 70% or more and less than 90%) | 
4 | CCC(COc1ccc(-c2sc3ccccc3c2-c2c(O)c(C)nn(C)c2=O)cc1)OC (racemic) [1-230] | 5 (Herbicidal rate of 90% or more (almost completely withered)) | 5 (Herbicidal rate of 90% or more (almost completely withered)) | 5 (Herbicidal rate of 90% or more (almost completely withered)) | 5 (Herbicidal rate of 90% or more (almost completely withered)) | 4 (Herbicidal rate of 70% or more and less than 90%) | 5 (Herbicidal rate of 90% or more (almost completely withered)) | 4 (Herbicidal rate of 70% or more and less than 90%) | 5 (Herbicidal rate of 90% or more (almost completely withered)) | 4 (Herbicidal rate of 70% or more and less than 90%) | 4 (Herbicidal rate of 70% or more and less than 90%) | 3 (Herbicidal rate of 40% or more and less than 70%) | 4 (Herbicidal rate of 70% or more and less than 90%) | 4 (Herbicidal rate of 70% or more and less than 90%) | 3 (Herbicidal rate of 40% or more and less than 70%) | 
5 | Cc1nn(C)c(=O)c(-c2c(-c3ccc(OCCBr)cc3)sc3ccccc23)c1O [1-204] | 4 (Herbicidal rate of 70% or more and less than 90%) | 4 (Herbicidal rate of 70% or more and less than 90%) | 4 (Herbicidal rate of 70% or more and less than 90%) | 5 (Herbicidal rate of 90% or more (almost completely withered)) | 0 (Herbicidal rate of 5% or less (almost no effect)) | 4 (Herbicidal rate of 70% or more and less than 90%) | 0 (Herbicidal rate of 5% or less (almost no effect)) | 3 (Herbicidal rate of 40% or more and less than 70%) | 0 (Herbicidal rate of 5% or less (almost no effect)) | 2 (Herbicidal rate of 20% or more and less than 40%) | 3 (Herbicidal rate of 40% or more and less than 70%) | 3 (Herbicidal rate of 40% or more and less than 70%) | 0 (Herbicidal rate of 5% or less (almost no effect)) | 0 (Herbicidal rate of 5% or less (almost no effect)) | 
6 | Cc1nn(C)c(=O)c(-c2c(-c3ccc(OCCC(F)(F)F)cc3)sc3ccccc23)c1O [1-206] | 5 (Herbicidal rate of 90% or more (almost completely withered)) | 5 (Herbicidal rate of 90% or more (almost completely withered)) | 5 (Herbicidal rate of 90% or more (almost completely withered)) | 5 (Herbicidal rate of 90% or more (almost completely withered)) | 3 (Herbicidal rate of 40% or more and less than 70%) | 5 (Herbicidal rate of 90% or more (almost completely withered)) | 5 (Herbicidal rate of 90% or more (almost completely withered)) | 5 (Herbicidal rate of 90% or more (almost completely withered)) | 5 (Herbicidal rate of 90% or more (almost completely withered)) | 5 (Herbicidal rate of 90% or more (almost completely withered)) | 3 (Herbicidal rate of 40% or more and less than 70%) | 5 (Herbicidal rate of 90% or more (almost completely withered)) | 4 (Herbicidal rate of 70% or more and less than 90%) | 5 (Herbicidal rate of 90% or more (almost completely withered)) | 

— patent US20230085307A1, “PYRIDAZINONE COMPOUND AND HERBICIDE” (NISSAN CHEMICAL CORPORATION, priority 2019, published 2023)
